{"source": "patent US20230107642A1", "about": "(Erasca, Inc., priority 2020, published 2023)", "biological_target": "T1, Cys12 of the KRAS 4B G12C protein (Homo sapiens, UniProt P01116, G12C)", "T1 construct": "This protein contained 188 amino acids in total, including an N-terminal 6-Histidine tag; made in house; host or cells: E. coli BL21", "assay": "In vitro covalent adduct formation (CAF) assay, LC-MS intact mass", "assay_type": "binding", "conditions": "10 uM compound, 60 min incubation", "procedure": "This Example provides a protocol for assessing covalent adduct formation (CAF) between the compounds of the present application and KRAS.\nIn vitro covalent adduct formation assay: Covalent adduct formation (CAF) reactions between Cys12 of the KRAS 4B G12C protein and some of the compounds of Tables 1 to 4 were measured in vitro using liquid chromatography-mass spectrometry (LC-MS).\nRecombinant Human KRAS 4B protein containing the G12C mutation was used in compound screening experiments. This protein contained 188 amino acids in total, including an N-terminal 6-Histidine tag, followed by a Tobacco Etch Virus (TEV) tag, followed by residues 1-169 of the native KRAS 4B sequence. The exact mass of the protein was 21,310 Da as determined by mass spectrometry. The full amino acid sequence is shown below: […]\nThe recombinant protein was expressed in E. coli BL21 cells and purified using affinity chromatography via a Ni-NTA column. Protein stocks were nucleotide-exchanged to >95% GDP, concentrated to 4 mg/mL, and stored at −80° C. in storage buffer (50 mM HEPES pH 7.4, 50 mM NaCl, 5 mM MgCl2, 1 mM DTT). Pure KRAS 4B G12C protein was diluted to a concentration of 5 μM in Tris Buffered Saline, pH 7.4. The compounds were dissolved in DMSO and added to the diluted protein to make a 10 μM concentration. The total DMSO concentration in the reaction was 4%. The reaction was mixed by pipetting and incubated at 22° C. for one hour. Aliquots of the reaction were taken over time and diluted 2:1 in 0.1% formic acid. The intact mass of the protein samples was measured by LC-MS using a QExactive+ mass spectrometer (Thermo Scientific). An amount of 500 ng total protein was injected onto a C8 reverse phase column, eluted with a seven-minute gradient of 30%-90% acetonitrile/0.1% formic acid, and analyzed for intact mass by the mass spectrometer. Adducts identified were confirmed to be within 1 Dalton of the expected mass, and the relative ratios of free:adduct protein were used to quantify the percentage of protein bound by the compound. CAF reactions were run in duplicate, with a typical variability of ±5%."}
{"smiles": "C=CC(=O)N1CCN(c2nc(=O)n3c4c(c(-c5cc(Cl)c(F)cc5F)c(C(F)(F)F)cc24)SC[C@@H]3COC)CC1", "note": "(atropisomer, axis not shown) [Example 1107, (3S,10R)-7-(4-acryloylpiperazin-1-yl)-10-(5-chloro-2,4-difluorophenyl)-3-(methoxymethyl)-9-(trifluoromethyl)-2,3-dihydro-5H-[1,4]thiazino[2,3,4-ij]quinazolin-5-one]", "values": [{"measurement": "% CAF 10 uM @ 60 min", "result": 97, "unit": "%"}]}
{"smiles": "C=CC(=O)N1CCN(c2nc(=O)n3c4c(c(-c5cc(Cl)c(F)cc5F)c(C(F)(F)F)cc24)SC[C@@H]3COC)CC1", "note": "(atropisomer, axis not shown) [Example 1108, (3S,10S)-7-(4-acryloylpiperazin-1-yl)-10-(5-chloro-2,4-difluorophenyl)-3-(methoxymethyl)-9-(trifluoromethyl)-2,3-dihydro-5H-[1,4]thiazino[2,3,4-ij]quinazolin-5-one]", "values": [{"measurement": "% CAF 10 uM @ 60 min", "result": 85, "unit": "%"}]}
{"smiles": "C=CC(=O)N1C[C@H](C)N(c2nc(=O)n3c4c(c(-c5ccc(F)cc5F)c(C(F)(F)F)cc24)SCC2(COC2)C3)C[C@H]1C", "note": "(atropisomer, axis not shown) [Example 1109, (S)-8′-((2S,5R)-4-acryloyl-2,5-dimethylpiperazin-1-yl)-11′-(2,4-difluorophenyl)-10′-(trifluoromethyl)-2′H,4′H,6′H-spiro[oxetane-3,3′-[1,4]thiazepino [2,3,4-ij]quinazolin]-6′-one]", "values": [{"measurement": "% CAF 10 uM @ 60 min", "result": 93, "unit": "%"}]}
{"smiles": "C=CC(=O)N1C[C@H](C)N(c2nc(=O)n3c4c(c(-c5ccc(F)cc5F)c(C(F)(F)F)cc24)SCC2(COC2)C3)C[C@H]1C", "note": "(atropisomer, axis not shown) [Example 1110, (R)-8′-((2S,5R)-4-acryloyl-2,5-dimethylpiperazin-1-yl)-11′-(2,4-difluorophenyl)-10′-(trifluoromethyl)-2′H,4′H,6′H-spiro[oxetane-3,3′-[1,4]thiazepino [2,3,4-ij]quinazolin]-6′-one]", "values": [{"measurement": "% CAF 10 uM @ 60 min", "result": 96.1, "unit": "%"}]}
{"smiles": "C=CC(=O)N1[C@H](C)CN(c2nc(=O)n3c4c(c(-c5cc(Cl)c(F)cc5F)c(C(F)(F)F)cc24)SC[C@H](N2CCOCC2)C3)C[C@@H]1C", "note": "(atropisomer, axis not shown) [Example 1114, (3R,11R)-8-((3S,5R)-4-acryloyl-3,5-dimethylpiperazin-1-yl)-11-(5-chloro-2,4-difluorophenyl)-3-morpholino-10-(trifluoromethyl)-3,4-dihydro-2H,6H-[1,4]thiazepino [2,3,4-ij]quinazolin-6-one]", "values": [{"measurement": "% CAF 10 uM @ 60 min", "result": 71.7, "unit": "%"}]}
{"smiles": "C=CC(=O)N1[C@H](C)CN(c2nc(=O)n3c4c(c(-c5cc(Cl)c(F)cc5F)c(C(F)(F)F)cc24)SC[C@H](N2CCOCC2)C3)C[C@@H]1C", "note": "(atropisomer, axis not shown) [Example 1115, (3R,11S)-8-((3S,5R)-4-acryloyl-3,5-dimethylpiperazin-1-yl)-11-(5-chloro-2,4-difluorophenyl)-3-morpholino-10-(trifluoromethyl)-3,4-dihydro-2H,6H-[1,4]thiazepino [2,3,4-ij]quinazolin-6-one]", "values": [{"measurement": "% CAF 10 uM @ 60 min", "result": 42.5, "unit": "%"}]}
{"smiles": "C=CC(=O)N1CCN(c2nc(=O)n3c4c(c(-c5cccc6cnn(C)c56)c(C(F)(F)F)cc24)SC[C@@H]3COC)CC1", "note": "(atropisomer, axis not shown) [Example 1119, (3S,10S)-7-(4-acryloylpiperazin-1-yl)-3-(methoxymethyl)-10-(1-methyl-1H-indazol-7-yl)-9-(trifluoromethyl)-2,3-dihydro-5H-[1,4]thiazino[2,3,4-ij]quinazolin-5-one]", "values": [{"measurement": "% CAF 10 uM @ 60 min", "result": 99.4, "unit": "%"}]}
{"smiles": "C=CC(=O)N1[C@H](C)CN(c2nc(=O)n3c4c(c(-c5cc(Cl)c(F)cc5F)c(C(F)(F)F)cc24)SCC2(COC2)C3)C[C@@H]1C", "note": "(atropisomer, axis not shown) [Example 1124, (R)-8′-((3S,5R)-4-acryloyl-3,5-dimethylpiperazin-1-yl)-11′-(5-chloro-2,4-difluorophenyl)-10′-(trifluoromethyl)-2′H,4′H,6′H-spiro[oxetane-3,3′-[1,4]thiazepino [2,3,4-ij]quinazolin]-6′-one]", "values": [{"measurement": "% CAF 10 uM @ 60 min", "result": 96.2, "unit": "%"}]}
{"smiles": "C=CC(=O)N1[C@H](C)CN(c2nc(=O)n3c4c(c(-c5cc(Cl)c(F)cc5F)c(C(F)(F)F)cc24)SCC2(COC2)C3)C[C@@H]1C", "note": "(atropisomer, axis not shown) [Example 1125, (S)-8′-((3S,5R)-4-acryloyl-3,5-dimethylpiperazin-1-yl)-11′-(5-chloro-2,4-difluorophenyl)-10′-(trifluoromethyl)-2′H,4′H,6′H-spiro[oxetane-3,3′-[1,4]thiazepino [2,3,4-ij]quinazolin]-6′-one]", "values": [{"measurement": "% CAF 10 uM @ 60 min", "result": 92.1, "unit": "%"}]}
{"smiles": "C=CC(=O)N1[C@H](C)CN(c2nc(=O)n3c4c(c(-c5ccc(F)c6cnn(C)c56)c(C(F)(F)F)cc24)SC[C@@H]3COC)C[C@@H]1C", "note": "(atropisomer, axis not shown) [Example 1126, (3S,10S)-7-((3S,5R)-4-acryloyl-3,5-dimethylpiperazin-1-yl)-10-(4-fluoro-1-methyl-1H-indazol-7-yl)-3-(methoxymethyl)-9-(trifluoromethyl)-2,3-dihydro-5H-[1,4]thiazino [2,3,4-ij]quinazolin-5-one]", "values": [{"measurement": "% CAF 10 uM @ 60 min", "result": 46.8, "unit": "%"}]}
{"smiles": "C=CC(=O)N1CCN(c2nc(=O)n3c4c(c(-c5ccc(F)cc5F)c(C(F)(F)F)cc24)SCC2(COC2)C3)CC1", "note": "(atropisomer, axis not shown) [Example 1127, (R)-8′-(4-acryloylpiperazin-1-yl)-11′-(2,4-difluorophenyl)-10′-(trifluoromethyl)-2′H,4′H,6′H-spiro[oxetane-3,3′-[1,4]thiazepino [2,3,4-ij]quinazolin]-6′-one]", "values": [{"measurement": "% CAF 10 uM @ 60 min", "result": 95.3, "unit": "%"}]}
{"smiles": "C=CC(=O)N1CCN(c2nc(=O)n3c4c(c(-c5ccc(F)cc5F)c(C(F)(F)F)cc24)SCC2(COC2)C3)CC1", "note": "(atropisomer, axis not shown) [Example 1128, (S)-8′-(4-acryloylpiperazin-1-yl)-11′-(2,4-difluorophenyl)-10′-(trifluoromethyl)-2′H,4′H,6′H-spiro[oxetane-3,3′-[1,4]thiazepino [2,3,4-ij]quinazolin]-6′-one]", "values": [{"measurement": "% CAF 10 uM @ 60 min", "result": 65.8, "unit": "%"}]}
{"smiles": "C=CC(=O)N1[C@H](C)CN(c2nc(=O)n3c4c(c(-c5cccc6cnn(C)c56)c(C(F)(F)F)cc24)SC[C@@H]3COC)C[C@@H]1C", "note": "(atropisomer, axis not shown) [Example 1130, (3S,10S)-7-((3S,5R)-4-acryloyl-3,5-dimethylpiperazin-1-yl)-3-(methoxymethyl)-10-(1-methyl-1H-indazol-7-yl)-9-(trifluoromethyl)-2,3-dihydro-5H-[1,4]thiazino [2,3,4-ij]quinazolin-5-one]", "values": [{"measurement": "% CAF 10 uM @ 60 min", "result": 95.6, "unit": "%"}]}
{"smiles": "C=CC(=O)N1[C@H](C)CN(c2nc(=O)n3c4c(c(-c5cccc6cnn(C)c56)c(C(F)(F)F)cc24)SC[C@@H]3COC)C[C@@H]1C", "note": "(atropisomer, axis not shown) [Example 1131, (3S,10R)-7-((3S,5R)-4-acryloyl-3,5-dimethylpiperazin-1-yl)-3-(methoxymethyl)-10-(1-methyl-1H-indazol-7-yl)-9-(trifluoromethyl)-2,3-dihydro-5H-[1,4]thiazino [2,3,4-ij]quinazolin-5-one]", "values": [{"measurement": "% CAF 10 uM @ 60 min", "result": 18.2, "unit": "%"}]}
{"smiles": "C=CC(=O)N1[C@H](C)CN(c2nc(=O)n3c4c(c(-c5cccc6cnn(C)c56)c(C(F)(F)F)cc24)SCC2(COC2)C3)C[C@@H]1C", "note": "(atropisomer, axis not shown) [Example 1132, (S)-8′-((3S,5R)-4-acryloyl-3,5-dimethylpiperazin-1-yl)-11′-(1-methyl-1H-indazol-7-yl)-10′-(trifluoromethyl)-2′H,4′H,6′H-spiro[oxetane-3,3′-[1,4]thiazepino [2,3,4-ij]quinazolin]-6′-one]", "values": [{"measurement": "% CAF 10 uM @ 60 min", "result": 85.6, "unit": "%"}]}
{"smiles": "C=CC(=O)N1[C@H](C)CN(c2nc(=O)n3c4c(c(-c5cccc6cnn(C)c56)c(C(F)(F)F)cc24)SCC2(COC2)C3)C[C@@H]1C", "note": "(atropisomer, axis not shown) [Example 1133, (R)-8′-((3S,5R)-4-acryloyl-3,5-dimethylpiperazin-1-yl)-11′-(1-methyl-1H-indazol-7-yl)-10′-(trifluoromethyl)-2′H,4′H,6′H-spiro[oxetane-3,3′-[1,4]thiazepino [2,3,4-ij]quinazolin]-6′-one]", "values": [{"measurement": "% CAF 10 uM @ 60 min", "result": 54.1, "unit": "%"}]}
{"smiles": "C=CC(=O)N1[C@H](C)CN(c2nc(=O)n3c4c(c(-c5cc(Cl)c(F)cc5F)c(C(F)(F)F)cc24)SC[C@@H](N2CCOCC2)C3)C[C@@H]1C", "note": "(atropisomer, axis not shown) [Example 1135, (3S,11S)-8-((3S,5R)-4-acryloyl-3,5-dimethylpiperazin-1-yl)-11-(5-chloro-2,4-difluorophenyl)-3-morpholino-10-(trifluoromethyl)-3,4-dihydro-2H,6H-[1,4]thiazepino [2,3,4-ij]quinazolin-6-one]", "values": [{"measurement": "% CAF 10 uM @ 60 min", "result": 72.7, "unit": "%"}]}
